The nature of the assay: Tested for competitive inhibitory activity against beta-Glucosidase.

Take `COC1OC(CO)C(Sc2nc(C)ccc2O)C(O)C1O` (stereo unspecified) [6-Hydroxymethyl-5-(3-hydroxy-6-methyl-pyridin-2-ylsulfanyl)-2-methoxy-tetrahydro-pyran-3,4-diol]: the Ki stood at 4.5 mM.

`COC1OC(CO)C(Sc2ncccc2O)C(O)C1O` (stereo unspecified) [6-Hydroxymethyl-5-(3-hydroxy-pyridin-2-ylsulfanyl)-2-methoxy-tetrahydro-pyran-3,4-diol]: the Ki is 0.8 mM.

Compound `CO[C@@H]1O[C@@H](CO)[C@@H](Oc2cccnc2S[C@H]2[C@H](O)[C@H](O)[C@H](OC)O[C@H]2CO)[C@H](O)[C@@H]1O` showed a Ki of 5.5 mM.

Regarding `COC1OC(CO)C(Sc2nc(CN(C)C)ccc2O)C(O)C1O` (stereo unspecified) [5-(6-Dimethylaminomethyl-3-hydroxy-pyridin-2-ylsulfanyl)-6-hydroxymethyl-2-methoxy-tetrahydro-pyran-3,4-diol], the Ki came out at 20 mM.

The compound `COC1OC(CO)C(Sc2nc(CO)ccc2O)C(O)C1O` (stereo unspecified) [5-(3-Hydroxy-6-hydroxymethyl-pyridin-2-ylsulfanyl)-6-hydroxymethyl-2-methoxy-tetrahydro-pyran-3,4-diol] yielded a Ki of 4 mM.

Compound `COC1OC(CO)C(Sc2ccccn2)C(O)C1O` (stereo unspecified) [6-Hydroxymethyl-2-methoxy-5-(pyridin-2-ylsulfanyl)-tetrahydro-pyran-3,4-diol] showed a Ki of 8 mM.

The record behind these values is BindingDB's records for doi:10.1016/0960-894X(95)00111-6 (1995).
